Reference: patent US6730699B2, “Water soluble paclitaxel derivatives” (priority 2001, dated 2004)
Like-named read-outs stand apart in the source and are kept apart here.

Tests used:
[1] = system: ovarian OCa-l carcinoma
[2] = system: SKOV3ipl human ovarian cancer cell line; test: Human ovarian cancer i.p. in nude mice
[3] = Acute toxicity in 13762F tumor-bearing Fischer rats
[4] = system: rat mammary tumor cell line 13762F; test: Plating efficiency assay, 13762F cells; assay type: cell-based; details: 144 h, read-out: IC50 (50% inhibition of colony formation), 6 days of continuous exposure, approximate
[5] = in vivo; details: female, C3Hf/Kam, mouse, iv
[6] = 47 mg eq./kg + 14 Gy 24 h after PG-TXL
[7] = 80 mg eq./kg + 14 Gy 24 h after PG-TXL
[8] = 120 mg eq/kg + 14 Gy 24 h after PG-TXL
[9] = 120 mg eq/kg + 14 Gy 24 h prior to PG-TXL

Poly-Glutamic Acid-Paclitaxel [PG-TXL]
Absolute growth delay [1, 6]: 18.2 days | Days for tumor to grow from 8-14 mm (means ± SD) [1, 6]: 35.3 ± 4.7 days | Normalized growth delay (means ± SD) [1, 6]: 15.5 ± 4.7 days | Absolute growth delay ([1]; 47 mg eq./kg, no radiation): 2.7 days | Days for tumor to grow from 8-14 mm (means ± SD) ([1]; 47 mg eq./kg, no radiation): 19.8 ± 0.98 days | Absolute growth delay [1, 7]: 45.6 days | Days for tumor to grow from 8-14 mm (means ± SD) [1, 7]: 62 ± 4.6 days | Normalized growth delay (means ± SD) [1, 7]: 37.5 ± 4.6 days | Absolute growth delay ([1]; 80 mg eq./kg, no radiation): 8.1 days | Days for tumor to grow from 8-14 mm (means ± SD) ([1]; 80 mg eq./kg, no radiation): 25.3 ± 3.9 days | Absolute growth delay [1, 8]: 98.4 days | Normalized growth delay (means ± SD) [1, 8]: 85.9 ± 3.0 days | Days for tumor to grow from 8-14 mm (means ± SD) ([1]; 120 mg eq/kg + 14 Gy 24 h after PG-TXL, regrown tumors only): 115 ± 3 days | Absolute growth delay [1, 9]: 100.5 days | Normalized growth delay (means ± SD) [1, 9]: 88 ± 1.2 days | Days for tumor to grow from 8-14 mm (means ± SD) ([1]; 120 mg eq/kg + 14 Gy 24 h prior to PG-TXL, regrown tumors only): 117 ± 1.2 days | Absolute growth delay ([1]; 120 mg eq/kg, no radiation): 12.5 days | Days for tumor to grow from 8-14 mm (means ± SD) ([1]; 120 mg eq/kg, no radiation): 29.7 ± 3.2 days | Ascites (incidence/mice with tumor) ([2]; 120 mg/kg, three injections): 3/7 | Mean vol of ascites (s.d.) ([2]; 120 mg/kg, three injections): 2.7 ± 1.4 mL | Tumor take (incidence of tumor/mice injected) ([2]; 120 mg/kg, three injections): 7/8 | mice killed by a single injection ([2]; 160 mg/kg i.v., nude mice): 5 of the 10 | Ascites (incidence/mice with tumor) ([2]; 160 mg/kg, single dose): 0/3 | Body Weight Loss in % ([3]; 40 mg/kg single i.v.): 11.1% | Time at Nadir ([3]; 40 mg/kg single i.v.): 6 days | Time of Full Recovery ([3]; 40 mg/kg single i.v.): 11 days | Body Weight Loss in % ([3]; 60 mg/kg single i.v.): 15.7% | Time at Nadir ([3]; 60 mg/kg single i.v.): 7 days | Time of Full Recovery ([3]; 60 mg/kg single i.v.): 14 days

CC(=O)O[C@H]1C(=O)[C@@]2(C)[C@H]([C@H](OC(=O)c3ccccc3)[C@]3(O)C[C@H](OC(=O)[C@H](O)[C@@H](NC(=O)c4ccccc4)c4ccccc4)C(C)=C1C3(C)C)[C@]1(OC(C)=O)CO[C@@H]1C[C@@H]2O [Paclitaxel, paclitaxel]
IC50 [4]: ~2 nM | MTD at 2 wk [5]: 80 mg/kg | # of Toxic Death ([3]; 20 mg/kg single i.v.): 0/5 | Body Weight Loss in % ([3]; 20 mg/kg single i.v.): 17.0% | Time at Nadir ([3]; 20 mg/kg single i.v.): 5 days | # of Toxic Death ([3]; 40 mg/kg single i.v.): 0/3 | Body Weight Loss in % ([3]; 40 mg/kg single i.v.): 17.9% | Time at Nadir ([3]; 40 mg/kg single i.v.): 6 days | Time of Full Recovery ([3]; 40 mg/kg single i.v.): 16 days | # of Toxic Death ([3]; 60 mg/kg single i.v.): 1/4 | Body Weight Loss in % ([3]; 60 mg/kg single i.v.): 16.7% | Time at Nadir ([3]; 60 mg/kg single i.v.): 6 days | Time of Full Recovery ([3]; 60 mg/kg single i.v.): 15 days | MTD at 2 wk ([3]; female, Fischer 344, rat, in vivo): < 20 mg/kg
